The text below walks through data of ChEMBL document CHEMBL1667851, “Synthesis and pharmacological evaluation of the individual stereoisomers of 3-[methyl(1,2,3,4-tetrahydro-2-naphthalenyl)amino]-1-indanone, a potent mast cell stabilising agent” (Bioorg Med Chem Lett, 2011).

The structures appear in SMILES notation.

Assay [1] relates to Mast cell. Description: Inhibition of vancomycin-induced histamine release in rat peritoneal mast cells. The class given is functional, cell-based.
Assay [2] has as its system Mus musculus. In words: Inhibition of IgE-induced PCA reaction in albino Swiss mouse at 3 mg/kg administered intradermally. The assay is classed as functional. On the set-up: Activity: scale not given: the % may be the effect or the level left. The following applies: for inhibition in vivo at 3 mg/kg: Mus musculus, albino Swiss.
Assay [3] relates to Mast cell. Description: Inhibition of A23187-induced histamine release in porcine peritoneal mast cells at 20 uM. The assay is classed as functional. The following applies: Sus scrofa.
In assay [4] the test system is Mast cell. Description: Inhibition of A23187-induced histamine release in rat peritoneal mast cells. The class given is functional, cell-based.
The test system of assay [5] is Mast cell. In words: Inhibition of anti-IgE-induced histamine release in porcine lung mast cells at 20 uM. The assay is classed as functional. The note with it: Sus scrofa.
For assay [6], the system named is Mast cell. Description: Inhibition of concanavalin A-induced histamine release in rat peritoneal mast cells. The assay is classed as functional, cell-based.
In assay [7] the test system is Mast cell. In words: Inhibition of compound 48/80-induced histamine release in rat peritoneal mast cells. The class given is functional, cell-based.
Assay [8] relates to Mus musculus. In words: Inhibition of IgE-induced PCA reaction in intradermally dosed albino Swiss mouse. The class given is functional, organism-based.

For orientation: IC50 means the midpoint of a concentration-inhibition curve. A word on the inhibition in vivo: it is the relative decrease from the control value, in per cent. For orientation: inhibition means the change of the read-out against control, counted positive when it falls. For `CN([C@H]1CCc2ccccc2C1)[C@@H]1CC(=O)c2ccccc21`, the IC50 with Mast cell [1] came out at 12.6 µM; with Mast cell [4] it was 6.97 µM; in the assay on Mast cell [6] it was 1.6 µM; in the assay with Mast cell [7] it was 2.18 µM. In addition, the inhibition in vivo at 3 mg/kg with Mus musculus [2] came to 68%. Also, the values for the inhibition at 20 µM in the assay on Mast cell [3] and with Mast cell [5] were 48% and 81%, respectively.
With `CN([C@@H]1CCc2ccccc2C1)[C@@H]1CC(=O)c2ccccc21`, in the assay with Mus musculus [2], the inhibition in vivo at 3 mg/kg was 77%. For the same molecule, the values for the inhibition at 20 µM in the assay on Mast cell [3] and in the assay on Mast cell [5] were 22% and 89%, respectively. Further, the IC50 stood at 9.48 µM in the assay with Mast cell [4], 13.1 µM in the assay on Mast cell [6] and 3.03 µM in the assay on Mast cell [7].
On to `CN([C@@H]1CCc2ccccc2C1)[C@H]1CC(=O)c2ccccc21`, for which the IC50 turned out to be 4.47 µM in the assay with Mast cell [1], 4.08 µM in the assay with Mast cell [4], 16.9 µM in the assay with Mast cell [6] and 1.51 µM in the assay with Mast cell [7]. In addition, the inhibition in vivo at 3 mg/kg in the assay on Mus musculus [2] worked out at 111%. Moreover, the inhibition at 20 µM came out at 31% in the assay on Mast cell [3] and 53% in the assay with Mast cell [5]. For the same molecule, the inhibition entry in the assay on Mus musculus [8] was “Dose-dependent effect”.
The molecule `O=C([O-])c1cc(=O)c2c(OCC(O)COc3cccc4oc(C(=O)[O-])cc(=O)c34)cccc2o1.[Na+].[Na+]` [CROMOLYN SODIUM] came in with an Activity in the assay with Mus musculus [2] of 73%.
As to `CN([C@H]1CCc2ccccc2C1)[C@H]1CC(=O)c2ccccc21`, the inhibition in vivo at 3 mg/kg in the assay with Mus musculus [2] turned out to be 73%. Moreover, the inhibition at 20 µM with Mast cell [3] was determined as 40%; with Mast cell [5] it was 86%. Besides, the IC50 worked out at 8.06 µM in the assay on Mast cell [4], 1.6 µM in the assay on Mast cell [6] and 1.49 µM with Mast cell [7].
In the case of `CN(C1CCc2ccccc2C1)C1CC(=O)c2ccccc21` (centres undefined), the inhibition in vivo at 3 mg/kg with Mus musculus [2] was 83%.
